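Here, GI50 denotes the concentration required for 50% inhibition of growth. At the TGI there is no net growth.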
Experiments:
Test in all cases: NCI-60 cell line screen, 384-well format
[1] = tested on: HS 578T breast
[2] = tested on: NCI-H322M lung
[3] = tested on: NCI-H522 lung
[4] = tested on: OVCAR-8 ovarian
[5] = tested on: SW-620 colon
[6] = tested on: MDA-MB-435 melanoma
[7] = tested on: HCT-15 colon
[8] = tested on: HOP-62 NSCLC
[9] = tested on: HOP-92 NSCLC
[10] = tested on: PC-3 prostate
[11] = tested on: 786-0 renal
[12] = tested on: UO-31 renal
[13] = tested on: SK-MEL-5 melanoma
[14] = tested on: MOLT-4 leukemia
[15] = tested on: EKVX NSCLC
[16] = tested on: DU-145 prostate
[17] = tested on: SNB-75 CNS
[18] = tested on: U251 glioblastoma
[19] = tested on: A549 NSCLC
[20] = tested on: SF-295 CNS
[21] = tested on: SR leukemia
[22] = tested on: MDA-MB-468 breast
[23] = tested on: M14 melanoma
[24] = tested on: UACC-257 melanoma
[25] = tested on: ACHN renal
[26] = tested on: NCI-H460 NSCLC
[27] = tested on: SN12C renal
[28] = tested on: K-562 leukemia
[29] = tested on: OVCAR-4 ovarian

CC1(COc2ccc3c(c2)ncn3-c2ccc3cccc(N4CCC(N)CC4)c3n2)COC1
GI50 [1]: 0.573 µM
TGI [1]: 1.73 µM
GI50 [2]: 1.95 µM
TGI [2]: 3.49 µM
GI50 [3]: 0.441 µM
TGI [3]: 1.63 µM
GI50 [4]: 1.18 µM
TGI [4]: 2.43 µM
GI50 [5]: 1.1 µM
TGI [5]: 2.42 µM
GI50 [6]: 1.28 µM
TGI [6]: 2.55 µM
GI50 [7]: 1.45 µM
TGI [7]: 2.99 µM
GI50 [8]: 0.556 µM
TGI [8]: 1.76 µM
GI50 [9]: 1.18 µM
TGI [9]: 2.47 µM
GI50 [10]: 1.69 µM
TGI [10]: 3.16 µM
GI50 [11]: 0.808 µM
TGI [11]: 2.07 µM
GI50 [12]: 1.55 µM
TGI [12]: 2.95 µM
GI50 [13]: 1.37 µM
TGI [13]: 2.66 µM
GI50 [14]: 0.362 µM
TGI [14]: 1.17 µM
GI50 [15]: 1.76 µM
TGI [15]: 3.41 µM
GI50 [16]: 1.09 µM
TGI [16]: 2.35 µM
GI50 [17]: 1.53 µM
TGI [17]: 2.87 µM
GI50 [18]: 1.34 µM
TGI [18]: 2.7 µM
GI50 [19]: 1.28 µM
TGI [19]: 2.63 µM
GI50 [20]: 1.58 µM
TGI [20]: 2.94 µM
GI50 [21]: 0.185 µM
TGI [21]: 0.43 µM
GI50 [22]: 0.532 µM
TGI [22]: 1.6 µM
GI50 [23]: 1.5 µM
TGI [23]: 2.83 µM
GI50 [24]: 2.71 µM
TGI [24]: 4.19 µM
GI50 [25]: 1.15 µM
TGI [25]: 2.47 µM
GI50 [26]: 0.479 µM
TGI [26]: 1.6 µM
GI50 [27]: 0.25 µM
TGI [27]: 1.58 µM
GI50 [28]: 0.967 µM
TGI [28]: 2.15 µM
GI50 [29]: 2.18 µM
TGI [29]: 3.64 µM

Reference: PubChem BioAssay (NCI)
